Test results reported in paper PMC10468942, “A Fluorescent Probe as a Lead Compound for a Selective α-Synuclein PET Tracer: Development of a Library of 2-Styrylbenzothiazoles and Biological Evaluation of [^18F]PFSB and [^18F]MFSB” (ACS Omega, 2023).
“And” between values parts separate entries of the source, which are not always exact repeats. Equal entries are not always repeated.

How the values were obtained:
[1] = biological target: T1, Aβ1-42 fibrils (Homo sapiens, UniProt P05067); assay: [^3H]PiB competition binding assay on Aβ fibrils; settings: for competition with [^3H]PiB / binding to Aβ fibrils (in words): Aβ1–42 fibrils
T1 construct: Synthetic lyophilized human Aβ1-42 peptide; purchased EMC Microcollections, Tuebingen, Germany; host or cells: synthetic peptide
T1 sequence (P05067 672-713 limits assumed): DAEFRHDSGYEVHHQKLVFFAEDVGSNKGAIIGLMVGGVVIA
Experimental: Following the cloning of the DNA construct encoding full-length αSYN into the pET-22b vector and its transformation into BL21 cells, the expression of human αSYN from a prokaryotic host was induced overnight in Escherichia coli at 20 °C with 0.5 mM IPTG. The cells were harvested by centrifugation, resuspended in 20 mM Tris-HCl pH 7.6, 25 mM NaCl and 1× complete protease inhibitor (Roche, Basel, Switzerland), and lysed by sonication. […] Anion exchange chromatography (HiTrap Q, GE Healthcare, Chicago, Illinois) was used to trap the produced αSYN, which was eluted with NaCl 0.1 M over 20 column volumes. Fractions containing αSYN were concentrated and further purified through a Superdex 75 SEC column equilibrated with PBS. […] A 4 mg/mL solution of αSYN in 20 mM K3PO4 pH 9.1 was placed in an orbital shaker at 37 °C, 1000 rpm for 5 days to prepare P91s. The assemblies were either sonicated with cycles of 20 s on and 10 s off at 50% amplitude (Q800R3, Qsonica) for a total of 10 min or directly aliquoted in volumes of 10 μL each stored at −80 °C until use. The method for Aβ1-42 fibrils generation was adapted from Bagchi et al. and described in Kuebler et al.[17],[27] […] Aggregation was induced by incubation in an Eppendorf Thermomixer at 37 °C with shaking at 800 rpm for 72 h. The resulting fibrils were sonicated for 3 min in a water bath (Elmasonic S 60 H, Elma Schmidbauer GmbH, Singen, Germany). The final products were aliquoted, frozen on dry ice, and stored at −80 °C until use.
(§1) Concentrations of αSYN and Aβ1-42 fibrils were as described above.
(§2) Plates were incubated on a shaker (MaxQ 6000, Thermo Fisher Scientific, Inc., Marietta, OH) at 50 rpm for 2 h at 37 °C, covered by removable sealing tapes (PerkinElmer, Waltham, MA). Vacuum filtration and read-out were performed as previously reported.[17] […] Data points were fitted using nonlinear regression analysis in GraphPad Prism (GraphPad Software, Inc., Version 8.4.0, La Jolla).

[2] = biological target: T2, αSYN fibrils (Homo sapiens, UniProt P37840); assay: [^3H]MODAG-001 competition binding assay on αSYN fibrils; settings: for Ki: n = 2, single determinations
T2 construct: cloning of the DNA construct encoding full-length αSYN into the pET-22b vector; made in house; host or cells: Escherichia coli BL21
Experimental: Following the cloning of the DNA construct encoding full-length αSYN into the pET-22b vector and its transformation into BL21 cells, the expression of human αSYN from a prokaryotic host was induced overnight in Escherichia coli at 20 °C with 0.5 mM IPTG. The cells were harvested by centrifugation, resuspended in 20 mM Tris-HCl pH 7.6, 25 mM NaCl and 1× complete protease inhibitor (Roche, Basel, Switzerland), and lysed by sonication. Additionally, they were boiled for 15 min and centrifuged at 12 000g for 30 min. Anion exchange chromatography (HiTrap Q, GE Healthcare, Chicago, Illinois) was used to trap the produced αSYN, which was eluted with NaCl 0.1 M over 20 column volumes. Fractions containing αSYN were concentrated and further purified through a Superdex 75 SEC column equilibrated with PBS. Additional purification was conducted via a high-capacity endotoxin removal spin column (Pierce, Waltham, Massachusetts), affording an endotoxin level below 1.0 EU/mg. The monomeric state and monodispersity of pure αSYN were confirmed by dynamic light scattering and fibrillation was performed according to the protocol from Makky et al.[26] A 4 mg/mL solution of αSYN in 20 mM K3PO4 pH 9.1 was placed in an orbital shaker at 37 °C, 1000 rpm for 5 days to prepare P91s. The assemblies were either sonicated with cycles of 20 s on and 10 s off at 50% amplitude (Q800R3, Qsonica) for a total of 10 min or directly aliquoted in volumes of 10 μL each stored at −80 °C until use. The method for Aβ1-42 fibrils generation was adapted from Bagchi et al. and described in Kuebler et al.[17],[27] […]
Plates were incubated on a shaker (MaxQ 6000, Thermo Fisher Scientific, Inc., Marietta, OH) at 50 rpm for 2 h at 37 °C, covered by removable sealing tapes (PerkinElmer, Waltham, MA). Vacuum filtration and read-out were performed as previously reported.[17] […]

[3] = biological target: T2, αSYN fibrils; assay: [^3H]PiB competition binding assay on αSYN fibrils
Experimental: Following the cloning of the DNA construct encoding full-length αSYN into the pET-22b vector and its transformation into BL21 cells, the expression of human αSYN from a prokaryotic host was induced overnight in Escherichia coli at 20 °C with 0.5 mM IPTG. The cells were harvested by centrifugation, resuspended in 20 mM Tris-HCl pH 7.6, 25 mM NaCl and 1× complete protease inhibitor (Roche, Basel, Switzerland), and lysed by sonication. […] Anion exchange chromatography (HiTrap Q, GE Healthcare, Chicago, Illinois) was used to trap the produced αSYN, which was eluted with NaCl 0.1 M over 20 column volumes. Fractions containing αSYN were concentrated and further purified through a Superdex 75 SEC column equilibrated with PBS. […] A 4 mg/mL solution of αSYN in 20 mM K3PO4 pH 9.1 was placed in an orbital shaker at 37 °C, 1000 rpm for 5 days to prepare P91s. The assemblies were either sonicated with cycles of 20 s on and 10 s off at 50% amplitude (Q800R3, Qsonica) for a total of 10 min or directly aliquoted in volumes of 10 μL each stored at −80 °C until use. […] The final products were aliquoted, frozen on dry ice, and stored at −80 °C until use.
as §1, §2

[4] = nonmethylated compounds, Table 1, two values in a cell = single determinations, a: mean Ki ± SEM of three data points, b: single data point, read-out: Ki
[5] = methylated compounds, Table 2, two values in a cell = single determinations, read-out: Ki
[6] = Ki, αSYN [^3H]PiB competition, mean Ki ± SEM, n = 3, or single determinations

| Compound | competition with [^3H]PiB / binding to Aβ fibrils (in words) [1] | Ki [3, 4] | Ki [3, 5] | other results |
| --- | --- | --- | --- | --- |
| Fc1ccc2nc(C=Cc3ccc(N4CCCCC4)cc3)sc2c1 [9a, 6-Fluoro-2-(4-(piperidin-1-yl)styryl)benzo[d]thiazole] | None of the tested compounds appreciably competed against [^3H]PiB | 0.0254 ± 0.0023 µM | – | Ki [2]: 0.125 µM and 0.159 µM |
| Fc1cccc2nc(C=Cc3ccc(N4CCCCC4)cc3)sc12 [12a, 7-Fluoro-2-(4-(piperidin-1-yl)styryl)benzo[d]thiazole] | – | 0.283 µM | – | – |
| C[n+]1c(C=Cc2ccc(N3CCCCC3)cc2)sc2c(F)cccc21 [12b, 7-Fluoro-3-methyl-2-(4-(piperidin-1-yl)styryl)benzo[d]thiazol-3-ium Iodide] | – | – | > 0.4 µM | – |
| C[n+]1c(-c2ccc(N3CCCCC3)cc2)sc2ccccc21 [13b, 3-Methyl-2-(4-(piperidin-1-yl)phenyl)benzo[d]thiazol-3-ium] | – | – | > 0.4 µM | – |
| C(C=Cc1nc2ccccc2s1)=Cc1ccc(N2CCCCC2)cc1 [14a, 2-(4-(4-(Piperidin-1-yl)phenyl)buta-1,3-dien-1-yl)benzo[d]thiazole] | None of the tested compounds appreciably competed against [^3H]PiB | 0.0819 ± 0.0156 µM | – | – |
| C[n+]1c(C=CC=Cc2ccc(N3CCCCC3)cc2)sc2ccccc21 [14b, 3-Methyl-2-(4-(4-(piperidin-1-yl)phenyl)buta-1,3-dien-1-yl)benzo[d]thiazol-3-ium Iodide] | – | – | 0.023 µM and 0.0168 µM | Ki [3, 6]: < 0.02 µM |
| C(=Cc1nc2ccccc2s1)c1ccc(N2CCOCC2)cc1 [15a, 4-(4-(2-(Benzo[d]thiazol-2-yl)vinyl)phenyl)morpholine] | None of the tested compounds appreciably competed against [^3H]PiB | 0.092 ± 0.0303 µM | – | – |
| C[n+]1c(/C=C/c2ccc(N3CCOCC3)cc2)sc2ccccc21 [15b, 3-Methyl-2-(4-morpholinostyryl)benzo[d]thiazol-3-ium Iodide] | – | – | > 0.4 µM | – |
| C(=Cc1nc2ccccc2s1)c1ccc(N2CCSCC2)cc1 [16a, 2-(4-Thiomorpholinostyryl)benzo[d]thiazole] | – | 0.219 µM and 0.0586 µM | – | – |
| C[n+]1c(C=Cc2ccc(N3CCSCC3)cc2)sc2ccccc21 [16b, 3-Methyl-2-(4-thiomorpholinostyryl)benzo[d]thiazol-3-ium Iodide] | – | – | > 0.4 µM | – |
| C(=Cc1nc2ccccc2s1)c1ccc(N2CCCC2)cc1 [17a, 2-(4-(Pyrrolidin-1-yl)styryl)benzo[d]thiazole] | None of the tested compounds appreciably competed against [^3H]PiB | 0.0734 ± 0.019 µM | – | – |
| C[n+]1c(C=Cc2ccc(N3CCCC3)cc2)sc2ccccc21 [17b, 3-Methyl-2-(4-(pyrrolidin-1-yl)styryl)benzo[d]thiazol-3-ium Iodide] | – | – | 0.145 µM and 0.0586 µM | – |
| FC1CCN(c2ccc(C=Cc3nc4ccccc4s3)cc2)CC1 [18a, 2-(4-(4-Fluoropiperidin-1-yl)styryl)benzo[d]thiazole] | – | 0.0998 ± 0.0326 µM | – | – |
| C[n+]1c(C=Cc2ccc(N3CCC(F)CC3)cc2)sc2ccccc21 [18b, 2-(4-(4-Fluoropiperidin-1-yl)styryl)-3-methylbenzo[d]thiazol-3-ium Iodide] | – | – | > 0.4 µM | – |
| CN(C)c1ccc(C=Cc2nc3ccccc3s2)cc1 [19a, 4-(2-(Benzo[d]thiazol-2-yl)vinyl)-N,N-dimethylaniline] | – | > 0.4 µM | – | – |
| CN(C)c1ccc(/C=C/c2sc3ccccc3[n+]2C)cc1 [19b, 2-(4-(Dimethylamino)styryl)-3-methylbenzo[d]thiazol-3-ium Iodide] | – | – | > 0.4 µM | – |
| C(=Cc1nc2ccccc2s1)c1ccc(N2CCCCC2)cc1 [compound 20, 2-(4-(Piperidin-1-yl)styryl)benzo[d]thiazole] | – | 0.17 µM and 0.0335 µM | – | – |
| Fc1ccc2nc(C=CC=Cc3ccc(N4CCCCC4)cc3)sc2c1 [compound 43, 6-Fluoro-2-(4-(4-(piperidin-1-yl)phenyl)buta-1,3-dien-1-yl)benzo[d]thiazole] | remained low | – | – | Ki [3, 6]: 0.213 ± 0.121 µM; fold reduction of affinity compared to 14a ([3]; [^3H]PiB competition): ~3 fold |
| Fc1ccc2nc(C=CC=Cc3ccc(N4CCCC4)cc3)sc2c1 [compound 44, 6-Fluoro-2-(4-(4-(pyrrolidin-1-yl)phenyl)buta-1,3-dien-1-yl)benzo[d]thiazole] | remained low | – | – | Ki [3, 6]: 0.085 ± 0.041 µM |
| Fc1ccc2nc(C=Cc3ccc(N4CCOCC4)cc3)sc2c1 [compound 45, 4-(4-(2-(6-Fluorobenzo[d]thiazol-2-yl)vinyl)phenyl)morpholine] | – | – | – | αSYN/Aβ selectivity (in words) ([1]; [^3H]PiB competition on αSYN and Aβ fibrils): remained unchanged; fold lower Ki than PFSB ([2]; [^3H]MODAG-001 competition): 4.6 fold; Ki [2]: 0.0203 µM and 0.0412 µM; Ki [3, 6]: 0.0103 ± 0.0047 µM; factor of affinity improvement compared to PFSB ([3]; [^3H]PiB competition, Ki-MFSB vs Ki-PFSB): 2.5 |
